From PMC6826616, “Topical 2′-Hydroxyflavanone for Cutaneous Melanoma” (Cancers, 2019) come the findings set out here.

Data set [1] concerns SK-MEL-24 cells. The data set is described as follows: Western blot densitometry of whole-cell lysates, SK-MEL-24. Type of data set: cell-based, human. The note with it: 48 h. On the procedure:
Supplemental data for Fig. 2C. Caspase 9
Numbers below of each blot represent protein 1.0 1.2 0.5 ND ND ND ND ND ND band intensity ratios to adequate controls after Procaspase 3 […]
RAL BP- 1 and apoptosis enzymes in SK-Mel-24, B16F0 17kD Active caspase 3 […]
48h. Cells were plated in complete growth medium. After overnight, cells were treated with different doses of 2HF, and PARP-1 incubated for 48h. Total cell lysates (40 µg/lane) were […]
buffer. Proteins were transferred to nitrocellulose C-terminal cleaved membrane, nonspecific binding was done in 1X clear milk, PARP~89kDa
+0.1%T20 (Invitrogen) for 1h at room temperature. All primary antibodies were from (mouse monoclonal, 1.0 0.8 0.9 1.0 0.9 ND 1.0 1.1 ND Santacruze Biotechnology (1:1000), in 1X clear milk
+0.1%T20 overnight in 40C. Secondary antibody from N-terminal cleaved
Santacruze Biotech (1:2000) for 1h at room temperature in PARP~24kDa […]
Supplemental Figure 7 Supplemental data for Fig. 5.
B16F0 SK-Mel- 24 B16F10Numbers below of each blot represent protein band intensity ratios to adequate
TNF-α Full blots are presented in next 4 figures. […]
cells after treatment with 50, 100 µM 2HF for 48h.
Raf-1 Raf-1 Cells were plated in complete growth medium. After overnight, cells were treated with different doses of 2HF, […]
loaded on 4- 12% bis-tris gel, with 1X MES gel running p-MEK-1 p-MEK-1 buffer. Proteins were transferred to nitrocellulose membrane, nonspecific binding was done in 1X clear
All primary antibodies were from (mouse monoclonal, MEKK15 MEKK15 except TNF-α (American Hamster), Santacruze
1.0 0.9 0.1 ND ND ND overnight in 40C. Secondary antibody from Santacruze Biotech (1:2000) for 1h at room temperature in 1X clear […]

The nature of data set [2]: Single dose pharmacokinetic study of 2HF. It counts as in vivo, Sprague Dawley male rats. As to conditions: male SD rats. On the procedure:
Figure 7 Plasma concentration vs. time profile of 2HF in rats. Mean plasma concentration vs. time profile of 2HF following intravenous and oral administration of 2HF at 5 mg/kg and 10 mg/kg, respectively, to male SD rats (n = 3).
Pharmacokinetic studies of 2HF were performed by GVK Biosciences Pvt. Ltd., Hyderabad, India in Sprague Dawley male rats (~280 g). Rats were dosed either orally through gastric gavage needle of 10 mg/kg 2HF (0.5% Methyl cellulose + 0.5% Tween80) or intravenous 5 mg/kg 2HF (in 10% DMSO). Then, 200–300 µL blood was collected at each time point and plasma was separated; 50 µL plasma sample was deproteinized with 200 µL of acetonitrile followed by centrifugation at 2000× g for 5 min and supernatant was analyzed for 2HF by LC-MS/MS. Pharmacokinetic parameters were calculated for individual animals by a non-compartmental model with Phoenix software version 8.1 (CERTARA, Princeton, NJ, USA).

As for `O=C1CC(c2ccccc2O)Oc2ccccc21` (stereo not drawn) [2HF, 2′-hydroxyflavanone], in data set [1] (SK-Mel-24, 50 µM 2HF), the “Active caspase 3 band intensity ratio to control (normalized against β-Actin)” value is given as 0.9, the “C-terminal cleaved PARP~89kDa band intensity ratio to control (normalized against β-Actin)” value turned out to be 0.8, the “Caspase 9 band intensity ratio to control (normalized against β-Actin)” value was 1.2 and the “N-terminal cleaved PARP~24kDa band intensity ratio to control (normalized against β-Actin)” value is 0.8. Also, in data set [1] (SK-Mel-24, 50 µM 2HF), the “PARP-1 band intensity ratio to control (normalized against β-Actin)” value is on record as 0.7, the “Procaspase 3 band intensity ratio to control (normalized against β-Actin)” value was 0.8, the “RAL BP-1 band intensity ratio to control (normalized against β-Actin)” value came to 0.4 and the “Raf-1 band intensity ratio to control (normalized against β-Actin)” value was 1.7. For the same compound, in data set [1] (SK-Mel-24, 50 µM 2HF), the “TNF-α band intensity ratio to control (normalized against β-Actin)” value is given as 0.4 and the “p-PDGFR-β band intensity ratio to control (normalized against β-Actin)” value was 0.7. Further, in data set [1] (SK-Mel-24, 100 µM 2HF), the “Active caspase 3 band intensity ratio to control (normalized against β-Actin)” value stood at 1.1, the “C-terminal cleaved PARP~89kDa band intensity ratio to control (normalized against β-Actin)” value is reported as 0.9, the “Caspase 9 band intensity ratio to control (normalized against β-Actin)” value is reported as 0.5 and the “N-terminal cleaved PARP~24kDa band intensity ratio to control (normalized against β-Actin)” value was 0.4. Besides, in data set [1] (SK-Mel-24, 100 µM 2HF), the “PARP-1 band intensity ratio to control (normalized against β-Actin)” value worked out at 0.1, the “Procaspase 3 band intensity ratio to control (normalized against β-Actin)” value is 0.5, the “RAL BP-1 band intensity ratio to control (normalized against β-Actin)” value amounted to 0.1 and the “p-PDGFR-β band intensity ratio to control (normalized against β-Actin)” value stood at 0.4. Further, in data set [2] (10 mg/kg oral vs 5 mg/kg IV), the oral bioavailability entry is “Poor” and the “plasma concentrations orally compared with IV” value is “two log-order lower”. Further, the clearance result in data set [2] (after either oral or IV administration) is given as “rapid clearance”.
